The results in this text go back to US20230348426A1, “OXOPYRROLIDINE FPR2 AGONISTS” (Bristol-Myers Squibb Company, priority 2020, published 2023).

What is called EC50 is the concentration giving half of the maximal effect.

Assay [1] deals with human FPR2 (Homo sapiens (Human), UniProt P25090). Nature of the assay: FPR2 cyclic adenosine monophosphate (cAMP) assay. It counts as cell-based. To be noted: CHO cells overexpressing human FPR2; forskolin 5 µM; inhibition of cAMP production; read-out: hFPR2 cAMP2 EC50. The procedure, abridged:
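Inhibition of forskolin-driven (5 µM) cAMP, with 200 µM IBMX, measured in human FPR2-expressing CHO cells, 2,000 per well, 30 min at room temperature; compounds tested 0.020 nM to 100 µM in 1% DMSO. HTRF 665/590 ratio converted to cAMP via calibration curve, then 4-parameter fit.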
(In general: Changes in cAMP serve as a functional read-out for many G protein-coupled receptors.)

In assay [2] the target is human FPR1 (Homo sapiens (Human), UniProt P21462). In words: FPR1 cyclic adenosine monophosphate (cAMP) assay. In kind it is cell-based. Conditions: CHO cells overexpressing human FPR1; forskolin 10 µM; inhibition of cAMP production; read-out: hFPR1 cAMP EC50. The procedure, abridged: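 Human FPR1-expressing CHO cells were used at 4,000 per well, with compound at 0.020 nM–100 µM in 1% DMSO. Potency came from a 4-parameter logistic fit.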
Sequence of human FPR1 (P21462 whole entry): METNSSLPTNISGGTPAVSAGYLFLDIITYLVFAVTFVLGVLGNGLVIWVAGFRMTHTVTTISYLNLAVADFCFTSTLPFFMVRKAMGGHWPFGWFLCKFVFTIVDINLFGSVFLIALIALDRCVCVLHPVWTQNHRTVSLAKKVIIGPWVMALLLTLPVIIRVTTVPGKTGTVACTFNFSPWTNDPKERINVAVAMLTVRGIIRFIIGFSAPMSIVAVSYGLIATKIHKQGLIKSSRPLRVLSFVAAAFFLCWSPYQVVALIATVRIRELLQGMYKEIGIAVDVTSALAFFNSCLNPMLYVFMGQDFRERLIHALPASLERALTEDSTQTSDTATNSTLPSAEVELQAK

Structures are written as SMILES. Where only a bound is given, the exact number is not on record here.

Sequence of human FPR2 (P25090 whole entry): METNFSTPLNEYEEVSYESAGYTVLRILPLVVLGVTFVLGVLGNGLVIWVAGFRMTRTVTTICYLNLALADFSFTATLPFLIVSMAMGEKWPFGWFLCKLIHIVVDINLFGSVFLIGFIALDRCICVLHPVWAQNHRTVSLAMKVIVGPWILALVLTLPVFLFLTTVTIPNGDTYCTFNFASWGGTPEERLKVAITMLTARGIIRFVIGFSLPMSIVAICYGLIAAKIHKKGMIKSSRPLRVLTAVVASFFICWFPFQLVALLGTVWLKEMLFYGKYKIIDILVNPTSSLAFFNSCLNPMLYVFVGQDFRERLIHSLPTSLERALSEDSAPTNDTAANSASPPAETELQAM

Consider `COc1cc(F)c([C@@H]2CN(c3nc(N4CC(C)OCC4=O)ccc3F)C(=O)[C@H]2NC(=O)c2ccc(OC(F)(F)F)cc2)c(F)c1` (some centres unmarked) [Example 124], for which the concentration giving a half-maximal response (EC50) in assay [1] was found to be 3.3 nM; in assay [2], 47 nM.
For `COc1cc(F)c([C@@H]2CN(c3nccc(NC4CCOC4)c3C(F)(F)F)C(=O)[C@H]2NC(=O)c2ccc(Cl)cc2)c(F)c1` (some centres unmarked) [Example 125] the same measures were 3.3 nM and 1100 nM.
In the case of `COc1cc(F)c([C@H]2[C@H](NC(=O)c3ccc(OC(F)F)cc3)C(=O)N(c3ncccc3OC(C)C)[C@H]2C)c(F)c1` [Example 126], the concentration for a half-maximal effect (EC50) in assay [1] came to 3.3 nM; in assay [2], 2300 nM.
For `COCCn1cccc(N2C(=O)[C@@H](NC(=O)c3ccc(OC(F)F)cc3)[C@H](c3c(F)cc(OC)cc3F)[C@H]2C)c1=O` [Example 127] the same measures were 3.3 nM and 390 nM.
On to `CCn1cccc(N2C[C@@H](c3ccc(OC)cc3)[C@H](NC(=O)c3ccc(OC(F)(F)F)cc3)C2=O)c1=O` [Example 128], for which the 50% effective concentration (EC50) was 3.3 nM in assay [1] and 6.3 nM in assay [2].
For `COc1cc(F)c([C@@H]2CN(c3nccc(NCC(C)O)c3C(F)(F)F)C(=O)[C@H]2NC(=O)c2ccc(OC(F)F)cc2)c(F)c1` (some centres unmarked) [Example 129] the same measures were 3.3 nM and 380 nM.
For `COc1cc(F)c([C@@H]2CN(c3cccn(CCO)c3=O)C(=O)[C@H]2NC(=O)c2ccc(Cl)cc2)c(F)c1` [Example 130] the same measures were 3.4 nM and 340 nM.
For `COCC(C(=O)N1CCOCC1)n1ccc(C)c(N2C[C@@H](c3c(F)cc(OC)cc3F)[C@H](NC(=O)c3ccc(OC(F)F)cc3)C2=O)c1=O` (some centres unmarked) [Example 131] the same measures were 3.4 nM and 0.8 nM.
Consider `COc1ccc([C@@H]2CN(c3c(C)ccn(C4CCOC4)c3=O)C(=O)[C@H]2NC(=O)c2ccc(OC(F)(F)F)cc2)cc1` (some centres unmarked) [Example 132], for which the EC50 in assay [1] was 3.4 nM; in assay [2], 0.8 nM.
As for `COCC(CO)n1cccc(N2C[C@@H](c3c(F)cc(OC)cc3F)[C@H](NC(=O)c3ccc(OC(F)F)cc3)C2=O)c1=O` (some centres unmarked) [Example 133], the EC50 stood at 3.4 nM in assay [1] and 12 nM in assay [2].
For `COCC(C(=O)N(C)C)n1cccc(N2C[C@@H](c3c(F)cc(OC)cc3F)[C@H](NC(=O)c3ccc(OC(F)(F)F)cc3)C2=O)c1=O` (some centres unmarked) [Example 134] the same measures were 3.5 nM and 1.6 nM.
On the same counts, the results for `COc1cc(F)c([C@@H]2CN(c3nc(N4CCC(O)C4=O)ccc3F)C(=O)[C@H]2NC(=O)c2ccc(OC(F)F)cc2)c(F)c1` (some centres unmarked) [Example 135] are 3.5 nM and 58 nM.
On to `COCC(CO)n1cccc(N2C[C@@H](c3ccc(OC)cc3)[C@H](NC(=O)c3ccc(OC(F)(F)F)cc3)C2=O)c1=O` (some centres unmarked) [Example 136], for which the concentration giving a half-maximal response (EC50) in assay [1] was 3.5 nM; in assay [2], 2.2 nM.
For `COCCn1cccc(N2C[C@@H](c3c(F)cc(OC)cc3F)[C@H](NC(=O)c3ccc(Cl)cc3)C2=O)c1=O` [Example 137] the same measures were 3.5 nM and 190 nM.
For `COc1cc(F)c([C@@H]2CN(c3cccn(CC(C)OC)c3=O)C(=O)[C@H]2NC(=O)c2ccc(OC(F)(F)F)cc2)c(F)c1` (some centres unmarked) [Example 138] the same measures were 3.5 nM and 1.7 nM.
On the same counts, the results for `COc1cc(F)c([C@@H]2CN(c3ccc(CO)[nH]c3=O)C(=O)[C@H]2NC(=O)c2ccc(OC(F)F)cc2)c(F)c1` [Example 139] are 3.5 nM and 570 nM.
In the case of `COc1cc(F)c([C@@H]2CN(c3ccc(C)n(C)c3=O)C(=O)[C@H]2NC(=O)c2ccc(Cl)cc2)c(F)c1` [Example 140], the EC50 was found to be 3.5 nM in assay [1] and 610 nM in assay [2].
On to `COc1cc(F)c([C@@H]2CN(c3cccn(CC(C)O)c3=O)C(=O)[C@H]2NC(=O)c2ccc(OC(F)F)cc2)c(F)c1` (some centres unmarked) [Example 141], for which the EC50 in assay [1] was 3.6 nM; in assay [2], 29 nM.
For `COCC(CO)n1cccc(N2C[C@@H](c3c(F)cc(OC)cc3F)[C@H](NC(=O)c3ccc(OC(F)F)cc3)C2=O)c1=O` (some centres unmarked) [Example 142] the same measures were 3.6 nM and 87 nM.
For `COc1ccc([C@@H]2CN(c3cccn(CCO)c3=O)C(=O)[C@H]2NC(=O)c2ccc(OC(F)F)cc2)c(F)c1` [Example 143] the same measures were 3.6 nM and 53 nM.
In the case of `COCC(CO)n1cccc(N2C[C@@H](c3c(F)cc(OC)cc3F)[C@H](NC(=O)c3ccc(OC(F)(F)F)cc3)C2=O)c1=O` (some centres unmarked) [Example 144], the EC50 was 3.6 nM in assay [1] and 23.1 nM in assay [2].
For `COc1cc(F)c([C@@H]2CN(c3cccn(CC(F)F)c3=O)C(=O)[C@H]2NC(=O)c2ccc(OC(F)F)cc2)c(F)c1` [Example 145] the same measures were 3.7 nM and 8.2 nM.
Consider `COc1cc(F)c([C@@H]2CN(c3nc(NC(C)=O)ccc3F)C(=O)[C@H]2NC(=O)c2ccc(OC(F)F)cc2)c(F)c1` [Example 146], for which the concentration for a half-maximal effect (EC50) turned out to be 3.8 nM in assay [1] and 150 nM in assay [2].
On the same counts, the results for `COc1cc(F)c([C@@H]2CN(c3cccn(CC(OC)C(F)(F)F)c3=O)C(=O)[C@H]2NC(=O)c2ccc(OC(F)(F)F)cc2)c(F)c1` (some centres unmarked) [Example 147] are 3.8 nM and 2.2 nM.
On the same counts, the results for `COc1cc(F)c([C@@H]2CN(c3cccn(CC(F)F)c3=O)C(=O)[C@H]2NC(=O)c2ccc(OC(F)(F)F)cc2)c(F)c1` [Example 148] are 3.8 nM and 19 nM.
On the same counts, the results for `COc1cc(F)c([C@@H]2CN(c3c(C)ccn(CC4CC4)c3=O)C(=O)[C@H]2NC(=O)c2ccc(OC(F)(F)F)cc2)c(F)c1` [Example 151] are 3.9 nM and 0.5 nM.
On to `COc1cc(F)c([C@@H]2CN(c3ccnc(N4C[C@@H](C)N(C)[C@@H](C)C4)c3C(F)(F)F)C(=O)[C@H]2NC(=O)c2ccc(OC(F)F)cc2)c(F)c1` [Example 152], for which the results for the EC50 in assay [1] and in assay [2] were 3.9 nM and 460 nM, respectively.
Turning to `COCC(CO)n1cccc(N2C[C@@H](c3c(F)cc(OC)cc3F)[C@H](NC(=O)c3ccc(OC(F)(F)F)cc3)C2=O)c1=O` (some centres unmarked) [Example 153], the EC50 amounted to 4 nM in assay [1] and 4.2 nM in assay [2].
`COCC(CO)n1cccc(N2C[C@@H](c3ccc(Cl)cc3)[C@H](NC(=O)c3ccc(OC(F)(F)F)cc3)C2=O)c1=O` (some centres unmarked) [Example 154]: the figures for the concentration for a half-maximal effect (EC50) in assay [1] and in assay [2] were 4 nM and 3.3 nM, respectively.
On the same counts, the results for `COc1cc(F)c([C@@H]2CN(c3cccn(CC(O)C(F)(F)F)c3=O)C(=O)[C@H]2NC(=O)c2ccc(OC(F)(F)F)cc2)c(F)c1` (some centres unmarked) [Example 155] are 4 nM and 9.3 nM.
On the same counts, the results for `COc1cc(F)c([C@@H]2CN(c3cccn(CC(OC)C(F)(F)F)c3=O)C(=O)[C@H]2NC(=O)c2ccc(OC(F)(F)F)cc2)c(F)c1` (some centres unmarked) [Example 156] are 4 nM and 1.3 nM.
`COc1cc(F)c([C@@H]2CN(c3cccnc3OC3CCOC3)C(=O)[C@H]2NC(=O)c2ccc(OC(F)F)cc2)c(F)c1` (some centres unmarked) [Example 157]: the EC50 in assay [1] turned out to be 4 nM; in assay [2], 100 nM.
For `CCn1cccc(N2C[C@@H](c3c(F)cc(OC)cc3F)[C@H](NC(=O)c3ccc(C(F)(F)F)cc3)C2=O)c1=O` [Example 159] the same measures were 4.1 nM and 74 nM.
For `COc1cc(F)c([C@@H]2CN(c3nccc(N4C[C@@H]5C[C@H]4CN5C)c3C#N)C(=O)[C@H]2NC(=O)c2ccc(Cl)cc2)c(F)c1` [Example 160] the same measures were 4.1 nM and 1100 nM.
On to `COc1cc(F)c([C@@H]2CN(c3cccn(CC(OC)C(F)(F)F)c3=O)C(=O)[C@H]2NC(=O)c2ccc(OC(F)F)cc2)c(F)c1` (some centres unmarked) [Example 161], for which the values for the EC50 in assay [1] and in assay [2] were 4.1 nM and 3.4 nM, respectively.
On the same counts, the results for `COCCn1cccc(N2C[C@@H](c3ccc(Cl)cc3)[C@H](NC(=O)c3ccc(OC(F)F)cc3)C2=O)c1=O` [Example 162] are 4.1 nM and 9.4 nM.
For `COc1cc(F)c([C@@H]2CN(c3nccc(NC4CC4)c3C(F)(F)F)C(=O)[C@H]2NC(=O)c2ccc(Cl)cc2)c(F)c1` [Example 163] the same measures were 4.2 nM and 1200 nM.
For `COc1cc(F)c([C@@H]2CN(c3cccn(CCN4CC5(COC5)C4)c3=O)C(=O)[C@H]2NC(=O)c2ccc(OC(F)F)cc2)c(F)c1` [Example 164] the same measures were 4.2 nM and 290 nM.
As for `CCn1ccc(C)c(N2C[C@@H](c3ccc(OC)cc3F)[C@H](NC(=O)c3ccc(OC(F)F)cc3)C2=O)c1=O` [Example 165], the EC50 in assay [1] was 4.2 nM; in assay [2], 1.7 nM.
For `COc1cc(F)c([C@@H]2CN(c3nccc(NCC(C)(C)O)c3C(F)(F)F)C(=O)[C@H]2NC(=O)c2ccc(Cl)cc2)c(F)c1` [Example 166] the same measures were 4.3 nM and 2300 nM.
On the same counts, the results for `COc1cc(F)c([C@@H]2CN(c3nccc(N4C[C@@H](C)N(C)[C@@H](C)C4)c3C#N)C(=O)[C@H]2NC(=O)c2ccc(Cl)cc2)c(F)c1` [Example 167] are 4.3 nM and more than 10000 nM.
With `COc1cc(F)c([C@@H]2CN(c3cc(C(F)(F)F)cn(C)c3=O)C(=O)[C@H]2NC(=O)c2ccc(OC(F)F)cc2)c(F)c1` [Example 168], the results for the EC50 in assay [1] and in assay [2] were 4.3 nM and 1600 nM, respectively.
For `CCn1cccc(N2C[C@@H](c3c(F)cc(OC)cc3F)[C@H](NC(=O)c3ccc(OC(F)F)cc3)C2=O)c1=O` [Example 169] the same measures were 4.3 nM and 21 nM.
